Assay results taken from ChEMBL document CHEMBL3351860, “Synthesis and SAR of thieno[3,2-b]pyridinyl urea derivatives as urotensin-II receptor antagonists” (Bioorg Med Chem Lett, 2014).

How the values were obtained:
Urotensin-2 receptor = target: T1, Urotensin-2 receptor (Homo sapiens, UniProt Q9UKP6); assay: Displacement of europium-labeled urotensin-II from human urotensin-2 receptor expressed in HEK293 cells by TRF assay; assay type: cell-based
T1 sequence (Q9UKP6 whole entry): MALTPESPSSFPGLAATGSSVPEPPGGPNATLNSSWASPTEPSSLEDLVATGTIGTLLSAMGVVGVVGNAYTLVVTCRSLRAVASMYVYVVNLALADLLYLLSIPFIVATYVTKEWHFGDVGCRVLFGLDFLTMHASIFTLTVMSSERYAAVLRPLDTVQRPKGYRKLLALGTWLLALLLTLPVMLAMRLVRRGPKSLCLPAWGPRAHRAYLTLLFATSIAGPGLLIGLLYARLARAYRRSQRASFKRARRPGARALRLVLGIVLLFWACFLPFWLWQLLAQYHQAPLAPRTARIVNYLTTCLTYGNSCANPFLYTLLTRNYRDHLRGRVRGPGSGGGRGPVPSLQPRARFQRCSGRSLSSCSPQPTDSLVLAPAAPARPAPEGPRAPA

[1] = Metabolic stability in human liver microsomes after 30 mins; assay type: ADME; conditions: read-out: Stability
[2] = Metabolic stability in rat liver microsomes after 30 mins; assay type: ADME; conditions: read-out: Stability
CYP3A4 = CYP3A4 (Homo sapiens, UniProt P08684); assay: Inhibition of CYP3A4 (unknown origin) at 10 uM; assay type: ADME
[3] = target: Voltage-gated inwardly rectifying potassium channel KCNH2 (Homo sapiens, UniProt Q12809); assay: Inhibition of human ERG by patch clam assay
[4] = Permeability of the compound by PAMPA assay; assay type: ADME; conditions: read-out: permeability
[5] = target: T2, Urotensin-2 receptor (Homo sapiens) (UniProt Q9UKP6); assay: Displacement of europium-labeled urotensin-II from human urotensin-2 receptor expressed in HEK293 cells at 10 uM by TRF assay; assay type: cell-based
T2 sequence (whole entry): T1 sequence (Q9UKP6 whole entry)

Sequence of CYP3A4 (P08684 whole entry): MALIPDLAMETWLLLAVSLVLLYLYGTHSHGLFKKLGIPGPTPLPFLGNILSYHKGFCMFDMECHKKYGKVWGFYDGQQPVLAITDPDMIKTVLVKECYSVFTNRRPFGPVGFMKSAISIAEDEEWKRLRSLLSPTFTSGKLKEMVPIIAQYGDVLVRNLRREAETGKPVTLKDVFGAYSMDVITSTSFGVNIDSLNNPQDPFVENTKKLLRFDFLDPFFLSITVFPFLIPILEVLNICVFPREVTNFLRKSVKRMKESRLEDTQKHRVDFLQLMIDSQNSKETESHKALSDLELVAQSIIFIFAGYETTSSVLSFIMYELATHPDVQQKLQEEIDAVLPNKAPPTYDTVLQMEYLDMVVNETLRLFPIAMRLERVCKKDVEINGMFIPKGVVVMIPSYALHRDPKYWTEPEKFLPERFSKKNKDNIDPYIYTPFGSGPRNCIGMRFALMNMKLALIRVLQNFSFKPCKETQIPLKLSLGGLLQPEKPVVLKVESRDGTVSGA
Sequence of Voltage-gated inwardly rectifying potassium channel KCNH2 (Q12809 whole entry): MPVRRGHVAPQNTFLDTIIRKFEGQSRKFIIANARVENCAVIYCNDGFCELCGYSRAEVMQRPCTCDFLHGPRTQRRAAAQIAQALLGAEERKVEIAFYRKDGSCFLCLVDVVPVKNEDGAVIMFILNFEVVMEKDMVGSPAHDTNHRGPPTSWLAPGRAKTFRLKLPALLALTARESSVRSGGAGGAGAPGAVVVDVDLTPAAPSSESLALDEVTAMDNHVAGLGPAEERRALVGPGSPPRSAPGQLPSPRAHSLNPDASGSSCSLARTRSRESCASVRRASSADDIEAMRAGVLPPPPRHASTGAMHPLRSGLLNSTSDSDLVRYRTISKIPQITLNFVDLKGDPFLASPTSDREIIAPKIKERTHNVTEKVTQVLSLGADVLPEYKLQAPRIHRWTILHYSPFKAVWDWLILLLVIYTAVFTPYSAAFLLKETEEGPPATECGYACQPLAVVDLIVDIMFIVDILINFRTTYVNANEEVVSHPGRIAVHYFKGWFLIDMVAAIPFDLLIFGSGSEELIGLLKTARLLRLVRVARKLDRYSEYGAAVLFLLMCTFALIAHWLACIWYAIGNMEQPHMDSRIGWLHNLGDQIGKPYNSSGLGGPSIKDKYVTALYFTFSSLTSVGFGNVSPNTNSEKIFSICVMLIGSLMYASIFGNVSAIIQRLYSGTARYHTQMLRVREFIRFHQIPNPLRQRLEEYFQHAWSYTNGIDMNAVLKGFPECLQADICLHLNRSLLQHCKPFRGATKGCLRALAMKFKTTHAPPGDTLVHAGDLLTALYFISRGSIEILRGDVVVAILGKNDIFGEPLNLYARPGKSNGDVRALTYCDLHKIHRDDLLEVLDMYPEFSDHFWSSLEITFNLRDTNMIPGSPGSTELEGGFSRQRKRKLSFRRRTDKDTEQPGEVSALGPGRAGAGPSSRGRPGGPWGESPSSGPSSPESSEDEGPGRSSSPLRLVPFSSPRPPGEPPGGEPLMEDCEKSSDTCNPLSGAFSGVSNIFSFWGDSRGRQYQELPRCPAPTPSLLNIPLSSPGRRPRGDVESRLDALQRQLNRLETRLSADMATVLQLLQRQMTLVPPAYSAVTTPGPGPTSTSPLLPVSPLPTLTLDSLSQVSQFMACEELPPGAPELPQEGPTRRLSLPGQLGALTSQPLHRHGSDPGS

| Structure (SMILES) | IC50 (Urotensin-2 receptor) [nM] | further results |
| --- | --- | --- |
| O=C(NCCN1CCC(O)(Cc2ccccc2)CC1)Nc1ccnc2ccoc12 | 450 | – |
| O=C(NCCN1CCC(O)(Cc2ccccc2Br)CC1)Nc1ccnc2ccsc12 | 20 | – |
| Cc1ccc(CC2(O)CCN(CCNC(=O)Nc3ccnc4ccsc34)CC2)cc1 | 190 | – |
| O=C(NCCN1CCC(O)(Cc2ccc(F)cc2)CC1)Nc1ccnc2ccsc12 | 13 | remaining at 0.5 h [1]: 52%; remaining at 0.5 h [2]: 100%; inhibition at 10 µM (CYP3A4): > 10%; IC50 [3]: 5000 nM; Papp [4]: 0.027 ×10⁻⁶ cm/s |
| O=C(NCCN1CCC(O)(Cc2ccccc2)CC1)Nc1ccnc2cc(-c3ccccc3)sc12 | – | inhibition [5]: 47.3% |
| Cc1cc(NC(=O)NCCN2CCC(O)(Cc3ccccc3)CC2)c2cnn(C)c2n1 | 220 | – |
| Cn1cnc2c(NC(=O)NCCN3CCC(O)(Cc4ccccc4)CC3)ccnc21 | 2140 | – |
| Cn1ccc2nccc(NC(=O)NCCN3CCC(O)(Cc4ccccc4)CC3)c21 | 600 | – |
| Cn1ccc2c(NC(=O)NCCN3CCC(O)(Cc4ccccc4)CC3)ccnc21 | 160 | – |
| O=C(NCCN1CCC(O)(Cc2ccccc2)CC1)Nc1cc(Cl)nc2ccsc12 | – | inhibition [5]: 25.6% |
| O=C(NCCN1CCC(O)(Cc2ccccc2)CC1)Nc1cc(-c2ccccc2)nc2ccsc12 | – | inhibition [5]: 25.4% |

Now from value to molecule, other results behind:

| IC50 (Urotensin-2 receptor) [nM] | Structure (SMILES) | further results |
| --- | --- | --- |
| 3220 | O=C(NCCN1CCC(O)(Cc2ccccc2)CC1)Nc1ccnc2c(Br)csc12 | – |
| 26 | Cc1cc(NC(=O)NCCN2CCC(O)(Cc3ccccc3)CC2)c2sccc2n1 | – |
| 78 | Cc1cc2nccc(NC(=O)NCCN3CCC(O)(Cc4ccccc4)CC3)c2s1 | – |
| 60 | CCc1cc(NC(=O)NCCN2CCC(O)(Cc3ccccc3)CC2)c2sccc2n1 | – |
| 36 | O=C(NCCN1CCC(O)(Cc2ccccc2)CC1)Nc1ccnc2ccsc12 | – |
| 140 | Cc1cccc(CC2(O)CCN(CCNC(=O)Nc3ccnc4ccsc34)CC2)c1 | – |
| 42 | O=C(NCCN1CCC(O)(Cc2cccc(Br)c2)CC1)Nc1ccnc2ccsc12 | – |
| 20 | Cc1ccccc1CC1(O)CCN(CCNC(=O)Nc2ccnc3ccsc23)CC1 | – |
| 930 | O=C(NCCN1CCC(O)(Cc2ccccc2)CC1)Nc1ccnc2sccc12 | – |
| 1230 | Cc1csc2c(NC(=O)NCCN3CCC(O)(Cc4ccccc4)CC3)ccnc12 | – |
